Experimental data published in US20240270821A1, “GIP/GLP1/GCG TRI-RECEPTOR AGONISTS AND USES THEREOF” (priority 2023, published 2024).
Starred links: 1 amine or outer side, 2 acyl side, 3 side chain; linkers in the order of their positions; H or OH if unused. Non-standard residues stand in square brackets, D forms with d. Residues, ends and D or L forms follow the SMILES beside them. Groups on a side chain read outwards from the residue. *: point of attachment. C18 diacid = O=C(O)CCCCCCCCCCCCCCCCC(=O)*; αMePhe(2-F) = C[C@](N)(Cc1ccccc1F)C(=O)O; γGlu = O=C(O)[C@H](CCC(=O)[*:2])N[*:1]; αMe4Pal = C[C@](N)(Cc1ccncc1)C(=O)O; αMeY = C[C@](N)(Cc1ccc(O)cc1)C(=O)O; 4Pal = N[C@@H](Cc1ccncc1)C(=O)O; αMeL = CC(C)C[C@](C)(N)C(=O)O; αMeS = C[C@](N)(CO)C(=O)O; Orn = NCCC[C@H](N)C(=O)O; AEEA = NCCOCCOCC(=O)O; Aib = CC(C)(N)C(=O)O

Key:
Assay type in all cases: cell-based
[1] = molecular target: hGcgR (Homo sapiens, UniProt P47871); assay: Functional cAMP activation in the presence of 0.1% casein (no HSA); conditions: read-out: Relative cAMP EC50, hGcgR;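 further: intracellular cAMP rise after 30 min at 37 °C, read by HTRF against a cAMP standard curve, scaled from buffer only (0%) to maximal control ligand response (100%)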
[2] = molecular target: T1, hGIPR (Homo sapiens, UniProt P48546); assay: Functional cAMP activity in the presence of 1% HSA; conditions: read-out: cAMP Rel EC50, hGIPR
T1 sequence (P48546 22-466): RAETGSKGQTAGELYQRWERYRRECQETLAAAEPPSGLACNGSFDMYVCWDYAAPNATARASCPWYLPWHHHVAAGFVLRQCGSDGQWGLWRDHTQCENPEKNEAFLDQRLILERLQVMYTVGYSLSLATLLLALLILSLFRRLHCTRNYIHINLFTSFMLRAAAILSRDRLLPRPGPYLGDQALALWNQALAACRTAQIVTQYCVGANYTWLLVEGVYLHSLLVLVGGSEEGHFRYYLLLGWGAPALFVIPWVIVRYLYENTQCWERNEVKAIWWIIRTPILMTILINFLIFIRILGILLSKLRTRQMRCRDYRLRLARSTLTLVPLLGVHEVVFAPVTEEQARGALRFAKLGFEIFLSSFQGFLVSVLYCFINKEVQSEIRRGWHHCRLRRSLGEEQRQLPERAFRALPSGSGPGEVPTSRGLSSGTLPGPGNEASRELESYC

[3] = molecular target: T2, hGLP-1R (Homo sapiens, UniProt P43220); assay: Functional cAMP activity in the presence of 1% HSA; conditions: read-out: cAMP Rel EC50, hGLP-1R
[4] = molecular target: T2, hGLP-1R; assay: Functional cAMP activation in the presence of 0.1% casein (no HSA); conditions: read-out: Relative cAMP EC50, hGLP-1R;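 on Relative cAMP EC50, hGIPR: intracellular cAMP rise after 30 min at 37 °C read by HTRF against a standard curve, scaled between buffer alone (0%) and top control ligand concentration (100%), four-parameter fit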;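 on Relative cAMP EC50, hGLP-1R: intracellular cAMP rise after 30 min at 37 °C read by HTRF, normalized between buffer only (0%) and maximal control ligand (100%), four-parameter variable-slope fit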
[5] = molecular target: T1, hGIPR; assay: as above; conditions: read-out: Relative cAMP EC50, hGIPR
[6] = molecular target: human GcgR (Homo sapiens, UniProt P47871); assay: Functional cAMP activity in the presence of 1% HSA; conditions: read-out: cAMP Rel EC50, hGcgR
Sequence of human GcgR (P47871 26-477): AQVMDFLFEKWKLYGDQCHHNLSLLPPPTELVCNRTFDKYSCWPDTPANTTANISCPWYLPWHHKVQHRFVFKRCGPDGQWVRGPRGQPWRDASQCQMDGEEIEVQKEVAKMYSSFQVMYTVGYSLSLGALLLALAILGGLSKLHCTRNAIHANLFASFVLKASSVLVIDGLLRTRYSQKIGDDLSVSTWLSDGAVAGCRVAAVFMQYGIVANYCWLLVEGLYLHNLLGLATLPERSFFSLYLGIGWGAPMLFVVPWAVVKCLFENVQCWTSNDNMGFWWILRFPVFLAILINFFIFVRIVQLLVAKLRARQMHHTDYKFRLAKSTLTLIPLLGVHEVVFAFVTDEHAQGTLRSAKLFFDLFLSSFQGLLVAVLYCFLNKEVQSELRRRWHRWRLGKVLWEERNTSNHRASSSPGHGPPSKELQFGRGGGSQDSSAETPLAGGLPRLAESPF

Sequence of hGcgR (P47871 26-477): as above
T2 sequence (P43220 24-463): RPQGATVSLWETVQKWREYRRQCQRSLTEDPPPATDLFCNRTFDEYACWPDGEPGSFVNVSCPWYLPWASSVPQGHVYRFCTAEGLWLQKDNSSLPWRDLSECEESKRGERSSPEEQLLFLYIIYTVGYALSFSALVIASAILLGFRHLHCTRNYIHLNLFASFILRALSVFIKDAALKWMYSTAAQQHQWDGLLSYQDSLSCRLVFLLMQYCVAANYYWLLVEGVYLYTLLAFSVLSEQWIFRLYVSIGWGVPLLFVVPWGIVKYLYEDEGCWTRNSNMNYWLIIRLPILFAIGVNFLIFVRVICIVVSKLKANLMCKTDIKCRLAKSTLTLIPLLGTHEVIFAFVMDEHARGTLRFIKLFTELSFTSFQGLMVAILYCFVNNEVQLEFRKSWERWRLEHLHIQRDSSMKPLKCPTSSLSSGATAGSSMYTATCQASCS

EC50 [1] [nM]	EC50 [2] [nM]	EC50 [3] [nM]	EC50 [4] [nM]	EC50 [5] [nM]	EC50 [6] [nM]	SMILES
11.5	1.66	18.9	0.568	0.0205	424	CC[C@H](C)[C@H](NC(=O)[C@H](CC(C)C)NC(=O)[C@H](Cc1ccc(O)cc1)NC(=O)[C@@H](CCC(=O)O)NC(=O)[C@@H](NC(=O)[C@H](Cc1ccccc1)NC(=O)[C@H](CC(N)=O)NC(=O)C(C)(C)NC(=O)[C@H](CCC(N)=O)NC(=O)[C@H](C)NC(=O)[C@H](CCCCNC(=O)CC[C@H](NC(=O)CC[C@H](NC(=O)CCCCCCCCCCCCCCCCC(=O)O)C(=O)O)C(=O)O)NC(=O)[C@H](CCCN)NC(=O)[C@H](CC(=O)O)NC(=O)[C@H](CC(C)C)NC(=O)[C@](C)(CC(C)C)NC(=O)[C@@H](NC(=O)[C@](C)(CO)NC(=O)[C@H](Cc1ccncc1)NC(=O)[C@H](CC(=O)O)NC(=O)[C@H](CO)NC(=O)[C@@H](NC(=O)[C@](C)(Cc1ccccc1F)NC(=O)[C@@H](NC(=O)CNC(=O)[C@H](CCC(N)=O)NC(=O)C(C)(C)NC(=O)[C@@H](N)Cc1ccc(O)cc1)[C@@H](C)O)[C@@H](C)O)[C@@H](C)CC)[C@@H](C)CC)C(=O)N[C@@H](CCC(=O)O)C(=O)NCC(=O)NCC(=O)N1CCC[C@H]1C(=O)N[C@@H](CO)C(=O)N[C@@H](CO)C(=O)NCC(=O)N[C@@H](CCC(=O)O)C(=O)N1CCC[C@H]1C(=O)N1CCC[C@H]1C(=O)N1CCC[C@H]1C(=O)N[C@@H](CCC(=O)O)C(N)=O [Example 449] (H-Y[Aib]QGT[αMePhe(2-F)]TSD[4Pal][αMeS]I[αMeL]LD[Orn]K([γGlu-γGlu-C18 diacid])AQ[Aib]NFI[dE]YLIEGGPSSGEPPPE-NH2)
4.84	3.75	18.4	0.43	0.0448	553	CC[C@H](C)[C@H](NC(=O)[C@H](Cc1ccccc1)NC(=O)[C@H](CC(N)=O)NC(=O)C(C)(C)NC(=O)[C@H](CCC(N)=O)NC(=O)[C@H](C)NC(=O)[C@H](CCCCNC(=O)CC[C@H](NC(=O)CC[C@H](NC(=O)CCCCCCCCCCCCCCCCC(=O)O)C(=O)O)C(=O)O)NC(=O)[C@H](CCCN)NC(=O)[C@H](CC(=O)O)NC(=O)[C@H](CC(C)C)NC(=O)[C@](C)(CC(C)C)NC(=O)[C@@H](NC(=O)[C@](C)(CO)NC(=O)[C@H](Cc1ccncc1)NC(=O)[C@H](CC(=O)O)NC(=O)[C@H](CO)NC(=O)[C@@H](NC(=O)[C@](C)(Cc1ccccc1F)NC(=O)[C@@H](NC(=O)CNC(=O)[C@H](CCC(N)=O)NC(=O)C(C)(C)NC(=O)[C@@H](N)Cc1ccc(O)cc1)[C@@H](C)O)[C@@H](C)O)[C@@H](C)CC)C(=O)N[C@H](CCC(=O)O)C(=O)N[C@@](C)(Cc1ccc(O)cc1)C(=O)N[C@@H](CC(C)C)C(=O)N[C@@H](CCC(N)=O)C(=O)N[C@@H](CCC(=O)O)C(=O)NCC(=O)NCC(=O)N1CCC[C@H]1C(=O)N[C@@H](CO)C(=O)N[C@@H](CO)C(=O)NCC(=O)N[C@@H](CCC(=O)O)C(=O)N1CCC[C@H]1C(=O)N1CCC[C@H]1C(=O)N1CCC[C@H]1C(=O)N[C@@H](CCC(=O)O)C(N)=O [Example 450] (H-Y[Aib]QGT[αMePhe(2-F)]TSD[4Pal][αMeS]I[αMeL]LD[Orn]K([γGlu-γGlu-C18 diacid])AQ[Aib]NFI[dE][αMeY]LQEGGPSSGEPPPE-NH2)
4.12	0.96	10.9	0.256	0.0101	384	CC[C@H](C)[C@H](NC(=O)[C@H](CC(C)C)NC(=O)[C@](C)(Cc1ccc(O)cc1)NC(=O)[C@@H](CCC(=O)O)NC(=O)[C@@H](NC(=O)[C@H](Cc1ccccc1)NC(=O)[C@H](CC(N)=O)NC(=O)C(C)(C)NC(=O)[C@H](CCC(N)=O)NC(=O)[C@H](C)NC(=O)[C@H](CCCCNC(=O)COCCOCCNC(=O)CC[C@H](NC(=O)CC[C@H](NC(=O)CCCCCCCCCCCCCCCCC(=O)O)C(=O)O)C(=O)O)NC(=O)[C@H](CCCN)NC(=O)[C@H](CC(=O)O)NC(=O)[C@H](CC(C)C)NC(=O)[C@](C)(CC(C)C)NC(=O)[C@@H](NC(=O)[C@](C)(CO)NC(=O)[C@H](Cc1ccncc1)NC(=O)[C@H](CC(=O)O)NC(=O)[C@H](CO)NC(=O)[C@@H](NC(=O)[C@](C)(Cc1ccccc1F)NC(=O)[C@@H](NC(=O)CNC(=O)[C@H](CCC(N)=O)NC(=O)C(C)(C)NC(=O)[C@@H](N)Cc1ccc(O)cc1)[C@@H](C)O)[C@@H](C)O)[C@@H](C)CC)[C@@H](C)CC)C(=O)N[C@@H](CCC(=O)O)C(=O)NCC(=O)NCC(=O)N1CCC[C@H]1C(=O)N[C@@H](CO)C(=O)N[C@@H](CO)C(=O)NCC(=O)N[C@@H](CCC(=O)O)C(=O)N1CCC[C@H]1C(=O)N1CCC[C@H]1C(=O)N1CCC[C@H]1C(=O)N[C@@H](CCC(=O)O)C(N)=O [Example 451] (H-Y[Aib]QGT[αMePhe(2-F)]TSD[4Pal][αMeS]I[αMeL]LD[Orn]K([AEEA-γGlu-γGlu-C18 diacid])AQ[Aib]NFI[dE][αMeY]LIEGGPSSGEPPPE-NH2; N-terminus assumed)
7.37	1.95	20.6	0.374	0.0184	261	CC[C@H](C)[C@H](NC(=O)[C@H](CC(C)C)NC(=O)[C@](C)(Cc1ccncc1)NC(=O)[C@@H](CCC(=O)O)NC(=O)[C@@H](NC(=O)[C@H](Cc1ccccc1)NC(=O)[C@H](CCCN)NC(=O)C(C)(C)NC(=O)[C@H](CCC(N)=O)NC(=O)[C@H](C)NC(=O)[C@H](CCCCNC(=O)COCCOCCNC(=O)CC[C@H](NC(=O)CCCCCCCCCCCCCCCCC(=O)O)C(=O)O)NC(=O)[C@H](CCCN)NC(=O)[C@H](CC(=O)O)NC(=O)[C@H](CC(C)C)NC(=O)[C@](C)(CC(C)C)NC(=O)[C@@H](NC(=O)[C@](C)(CO)NC(=O)[C@H](Cc1ccncc1)NC(=O)[C@H](CC(=O)O)NC(=O)[C@H](CO)NC(=O)[C@@H](NC(=O)[C@](C)(Cc1ccccc1F)NC(=O)[C@@H](NC(=O)CNC(=O)[C@H](CCC(N)=O)NC(=O)C(C)(C)NC(=O)[C@@H](N)Cc1ccc(O)cc1)[C@@H](C)O)[C@@H](C)O)[C@@H](C)CC)[C@@H](C)CC)C(=O)N[C@@H](CCC(=O)O)C(=O)NCC(=O)NCC(=O)N1CCC[C@H]1C(=O)N[C@@H](CO)C(=O)N[C@@H](CO)C(=O)NCC(=O)N[C@@H](CCC(=O)O)C(=O)N1CCC[C@H]1C(=O)N1CCC[C@H]1C(=O)N1CCC[C@H]1C(=O)N[C@@H](CCC(=O)O)C(N)=O [Example 453] (H-Y[Aib]QGT[αMePhe(2-F)]TSD[4Pal][αMeS]I[αMeL]LD[Orn]K([AEEA-γGlu-C18 diacid])AQ[Aib][Orn]FI[dE][αMe4Pal]LIEGGPSSGEPPPE-NH2)
